# Measured values from ChEMBL document CHEMBL1201862, “PubChem BioAssay data set” (2004).
# Calls of active or inactive are those of the source.
# Assays:
# [1] = biological target: T1, Voltage-gated N-type calcium channel alpha-1B subunit/Amyloid beta A4 precursor protein-binding family A member 1 (Homo sapiens, UniProt Q00975+Q02410); assay type: protein assay
# Caspase-7 = Caspase-7 (Homo sapiens, UniProt P55210); test: activation of caspase-7 zymogen – biochemical, absorbance, counter-screen for procaspase-3 activator project, dose response (AID 489013)
# Caspase-7, sequence (P55210 24-198 limits assumed): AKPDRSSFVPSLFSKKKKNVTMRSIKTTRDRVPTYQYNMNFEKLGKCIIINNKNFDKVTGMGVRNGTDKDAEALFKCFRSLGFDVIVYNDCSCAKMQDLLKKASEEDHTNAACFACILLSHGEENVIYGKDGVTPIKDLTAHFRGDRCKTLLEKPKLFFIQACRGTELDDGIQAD
# Caspase-7, sequence (P55210 207-303 limits assumed): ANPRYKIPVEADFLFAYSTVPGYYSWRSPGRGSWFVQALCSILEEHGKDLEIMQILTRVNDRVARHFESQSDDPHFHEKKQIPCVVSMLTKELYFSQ
# Caspase-3 = biological target: T2, Caspase-3 (Homo sapiens, UniProt P42574); test: activation of caspase-3 zymogen – biochemical, absorbance, dose response (AID 489014)
# T2 sequence (P42574 whole entry): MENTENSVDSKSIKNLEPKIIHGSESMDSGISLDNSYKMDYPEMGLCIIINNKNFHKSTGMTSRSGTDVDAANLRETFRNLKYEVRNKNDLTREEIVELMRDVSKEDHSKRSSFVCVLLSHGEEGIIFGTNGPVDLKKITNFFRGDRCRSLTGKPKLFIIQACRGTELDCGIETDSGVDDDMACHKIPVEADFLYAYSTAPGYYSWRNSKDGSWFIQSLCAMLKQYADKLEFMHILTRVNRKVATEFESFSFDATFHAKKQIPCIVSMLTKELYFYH
# [2] = biological target: T1, Voltage-gated N-type calcium channel alpha-1B subunit/Amyloid beta A4 precursor protein-binding family A member 1; assay type: protein assay; remark: listed apart in the source
# Saccharomyces cerevisiae = test: S. cerevisiae Caspase-1/ASC signal blockers IC50, NALP1 inhibitor project selectivity test (AID 488863); assay type: functional, organism-based
# [3] = biological target: NACHT, LRR and PYD domains-containing protein 1 (Homo sapiens, UniProt Q9C000); test: NALP1 inhibitors in yeast, dose response, luminescent (AID 488860); assay type: functional
# [4] = biological target: T3, Ubiquitin-conjugating enzyme E2 N (Homo sapiens, UniProt P61088); assay type: functional;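 also: Dose-response confirmation in a TR-FRET assay detecting UBC13-driven polyubiquitin chain formation, inhibition measured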
# T3 sequence (P61088 whole entry): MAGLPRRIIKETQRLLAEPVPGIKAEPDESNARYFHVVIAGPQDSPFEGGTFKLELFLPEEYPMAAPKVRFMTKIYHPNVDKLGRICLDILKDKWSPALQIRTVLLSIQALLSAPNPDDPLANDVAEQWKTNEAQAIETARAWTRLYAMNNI
# [5] = biological target: T4, Short transient receptor potential channel 4 (Mus musculus, UniProt Q9QUQ5); test: calcium entry via TRPC4 opening agents – cell-based, HEK293 TRPC4/mu-opioid, Fluo-4 calcium, dose response (AID 434937); assay type: functional
# T4 sequence (Q9QUQ5 whole entry): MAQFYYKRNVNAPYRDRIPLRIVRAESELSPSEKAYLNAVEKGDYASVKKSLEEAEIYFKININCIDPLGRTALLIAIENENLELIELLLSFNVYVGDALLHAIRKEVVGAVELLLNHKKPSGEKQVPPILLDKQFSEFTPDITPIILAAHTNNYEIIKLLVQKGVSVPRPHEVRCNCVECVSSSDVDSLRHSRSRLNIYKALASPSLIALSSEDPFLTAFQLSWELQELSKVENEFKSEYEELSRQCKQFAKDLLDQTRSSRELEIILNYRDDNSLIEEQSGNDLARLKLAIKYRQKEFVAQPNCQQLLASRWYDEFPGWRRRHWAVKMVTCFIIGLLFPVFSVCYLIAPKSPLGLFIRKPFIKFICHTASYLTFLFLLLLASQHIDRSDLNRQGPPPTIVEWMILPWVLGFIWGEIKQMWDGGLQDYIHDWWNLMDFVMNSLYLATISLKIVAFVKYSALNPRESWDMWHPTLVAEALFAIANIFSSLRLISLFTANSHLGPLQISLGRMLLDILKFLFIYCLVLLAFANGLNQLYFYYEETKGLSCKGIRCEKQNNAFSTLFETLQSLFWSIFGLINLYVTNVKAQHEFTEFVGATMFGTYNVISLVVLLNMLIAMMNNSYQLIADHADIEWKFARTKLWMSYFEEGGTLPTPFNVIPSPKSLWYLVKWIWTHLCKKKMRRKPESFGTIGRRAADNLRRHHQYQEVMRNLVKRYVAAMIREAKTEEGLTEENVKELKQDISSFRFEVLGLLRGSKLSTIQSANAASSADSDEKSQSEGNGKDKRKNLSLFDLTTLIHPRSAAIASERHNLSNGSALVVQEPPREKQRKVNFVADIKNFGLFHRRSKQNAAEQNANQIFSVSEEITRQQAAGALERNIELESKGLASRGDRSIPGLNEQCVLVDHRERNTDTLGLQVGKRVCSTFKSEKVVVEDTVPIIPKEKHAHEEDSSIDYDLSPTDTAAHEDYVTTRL
# Protein Rev = Protein Rev (Human immunodeficiency virus type 1 group M subtype B (isolate HXB2)(HIV-1), UniProt P04618); test: blockers of HIV Rev/RRE RNA complex – biochemical, fluorescence polarization, HIV-1, dose response (AID 434976); design: species or system Human immunodeficiency virus 1
# Protein Rev, sequence (P04618 whole entry): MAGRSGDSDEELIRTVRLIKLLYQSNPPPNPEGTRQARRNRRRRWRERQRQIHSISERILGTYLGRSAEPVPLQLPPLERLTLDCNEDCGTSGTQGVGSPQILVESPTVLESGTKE
# Nonstructural protein 1 = Nonstructural protein 1 (Influenza A virus, UniProt Q194T2); assay type: functional, Influenza A virus (A/California/07/2009(H1N1))
# Nonstructural protein 1, sequence (Q194T2 whole entry): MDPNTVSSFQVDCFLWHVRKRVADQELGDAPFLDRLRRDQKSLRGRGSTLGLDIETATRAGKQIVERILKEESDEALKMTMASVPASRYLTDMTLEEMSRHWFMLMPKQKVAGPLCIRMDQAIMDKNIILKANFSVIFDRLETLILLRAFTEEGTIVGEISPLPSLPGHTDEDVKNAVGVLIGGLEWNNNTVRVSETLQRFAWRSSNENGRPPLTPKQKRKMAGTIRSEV
# [6] = biological target: Female germline-specific tumor suppressor gld-1 (Caenorhabditis elegans, UniProt Q17339); test: blockers of GLD-1/TGE RNA complex formation – biochemical, fluorescence polarization, C. elegans, dose response (AID 2802);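 also: fluorescence polarization of labeled TGE RNA bound by purified gld-1 protein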
# Female germline-specific tumor suppressor gld-1, sequence (Q17339 whole entry): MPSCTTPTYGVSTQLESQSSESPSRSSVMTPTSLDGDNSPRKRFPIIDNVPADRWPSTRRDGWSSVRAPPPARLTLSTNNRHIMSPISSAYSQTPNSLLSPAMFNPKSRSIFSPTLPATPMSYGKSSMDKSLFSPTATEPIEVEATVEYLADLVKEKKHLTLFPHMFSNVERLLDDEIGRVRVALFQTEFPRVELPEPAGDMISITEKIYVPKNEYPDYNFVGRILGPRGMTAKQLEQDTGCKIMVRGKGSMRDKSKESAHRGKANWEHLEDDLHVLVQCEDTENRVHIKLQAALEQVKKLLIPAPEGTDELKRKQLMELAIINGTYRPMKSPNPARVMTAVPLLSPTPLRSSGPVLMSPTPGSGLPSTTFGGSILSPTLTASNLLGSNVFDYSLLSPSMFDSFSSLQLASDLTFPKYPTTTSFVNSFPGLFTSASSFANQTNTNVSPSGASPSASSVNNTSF
# cells = assay type: functional, cell-based
# BJ [7] = test: cells; assay type: functional, cell-based; details: Homo sapiens
# [8] = DRD fibroblast viability loss – cell-based, non-viral oncogenic, luminescence, dose response (AID 1934); assay type: functional; details: Homo sapiens
# BJ [9] = test: BJ-TERT fibroblast viability loss – cell-based, RAS-independent, luminescence, dose response (AID 1933); assay type: functional; details: Homo sapiens
# [10] = alpha-synuclein stem-loop luciferase translation blockers – H4 neuroglioma cells, luminescence, confirmation (AID 1988); assay type: functional, cell-based
# J774.A1 = test: Confirmation of image-based Screening Assay for Inhibitors of Phagocytosis. [Related pubchem assays (depositor defined):AID1029, AID1643]; assay type: functional, cell-based; details: Mus musculus
# BJ [11] = test: BJ-TERT-LT-ST fibroblast viability loss – cell-based, RAS-independent, luminescence, dose response (AID 1935); assay type: functional; details: Homo sapiens;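 also: BJ fibroblasts immortalized with TERT plus LT and ST oncogenes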
# [12] = Luminescence Cell-Based Dose Response HTS to Identify Inhibitors of 5'UTR Stem-Loop Driven Prion Protein mRNA Translation in H4 Neuroglioblastoma Cells. [Related pubchem assays: 1827 (Project Summary), 1813 (Primary HTS)]; assay type: functional
# [13] = luciferase reporter signal suppression in cells – H4 neuroglioma cells, luminescence, dose response (AID 1990); assay type: functional, cell-based
# [14] = luciferase reporter signal reduction – luminescence, H4-C neuroglioblastoma cells, dose response (AID 2458); assay type: functional, cell-based;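 also: H4 neuroglioblastoma cells stably carrying a luciferase reporter gene fusion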
# [15] = alpha-synuclein stem-loop translation blockers – luminescence, H4 neuroglioblastoma cells, dose confirmation, confirmation (AID 2454); assay type: functional, cell-based;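 also: H4 neuroglioblastoma cells carrying an alpha-synuclein 5'UTR luciferase reporter; potency for inhibition of the luciferase signal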
# T1 sequence (Q00975 whole entry): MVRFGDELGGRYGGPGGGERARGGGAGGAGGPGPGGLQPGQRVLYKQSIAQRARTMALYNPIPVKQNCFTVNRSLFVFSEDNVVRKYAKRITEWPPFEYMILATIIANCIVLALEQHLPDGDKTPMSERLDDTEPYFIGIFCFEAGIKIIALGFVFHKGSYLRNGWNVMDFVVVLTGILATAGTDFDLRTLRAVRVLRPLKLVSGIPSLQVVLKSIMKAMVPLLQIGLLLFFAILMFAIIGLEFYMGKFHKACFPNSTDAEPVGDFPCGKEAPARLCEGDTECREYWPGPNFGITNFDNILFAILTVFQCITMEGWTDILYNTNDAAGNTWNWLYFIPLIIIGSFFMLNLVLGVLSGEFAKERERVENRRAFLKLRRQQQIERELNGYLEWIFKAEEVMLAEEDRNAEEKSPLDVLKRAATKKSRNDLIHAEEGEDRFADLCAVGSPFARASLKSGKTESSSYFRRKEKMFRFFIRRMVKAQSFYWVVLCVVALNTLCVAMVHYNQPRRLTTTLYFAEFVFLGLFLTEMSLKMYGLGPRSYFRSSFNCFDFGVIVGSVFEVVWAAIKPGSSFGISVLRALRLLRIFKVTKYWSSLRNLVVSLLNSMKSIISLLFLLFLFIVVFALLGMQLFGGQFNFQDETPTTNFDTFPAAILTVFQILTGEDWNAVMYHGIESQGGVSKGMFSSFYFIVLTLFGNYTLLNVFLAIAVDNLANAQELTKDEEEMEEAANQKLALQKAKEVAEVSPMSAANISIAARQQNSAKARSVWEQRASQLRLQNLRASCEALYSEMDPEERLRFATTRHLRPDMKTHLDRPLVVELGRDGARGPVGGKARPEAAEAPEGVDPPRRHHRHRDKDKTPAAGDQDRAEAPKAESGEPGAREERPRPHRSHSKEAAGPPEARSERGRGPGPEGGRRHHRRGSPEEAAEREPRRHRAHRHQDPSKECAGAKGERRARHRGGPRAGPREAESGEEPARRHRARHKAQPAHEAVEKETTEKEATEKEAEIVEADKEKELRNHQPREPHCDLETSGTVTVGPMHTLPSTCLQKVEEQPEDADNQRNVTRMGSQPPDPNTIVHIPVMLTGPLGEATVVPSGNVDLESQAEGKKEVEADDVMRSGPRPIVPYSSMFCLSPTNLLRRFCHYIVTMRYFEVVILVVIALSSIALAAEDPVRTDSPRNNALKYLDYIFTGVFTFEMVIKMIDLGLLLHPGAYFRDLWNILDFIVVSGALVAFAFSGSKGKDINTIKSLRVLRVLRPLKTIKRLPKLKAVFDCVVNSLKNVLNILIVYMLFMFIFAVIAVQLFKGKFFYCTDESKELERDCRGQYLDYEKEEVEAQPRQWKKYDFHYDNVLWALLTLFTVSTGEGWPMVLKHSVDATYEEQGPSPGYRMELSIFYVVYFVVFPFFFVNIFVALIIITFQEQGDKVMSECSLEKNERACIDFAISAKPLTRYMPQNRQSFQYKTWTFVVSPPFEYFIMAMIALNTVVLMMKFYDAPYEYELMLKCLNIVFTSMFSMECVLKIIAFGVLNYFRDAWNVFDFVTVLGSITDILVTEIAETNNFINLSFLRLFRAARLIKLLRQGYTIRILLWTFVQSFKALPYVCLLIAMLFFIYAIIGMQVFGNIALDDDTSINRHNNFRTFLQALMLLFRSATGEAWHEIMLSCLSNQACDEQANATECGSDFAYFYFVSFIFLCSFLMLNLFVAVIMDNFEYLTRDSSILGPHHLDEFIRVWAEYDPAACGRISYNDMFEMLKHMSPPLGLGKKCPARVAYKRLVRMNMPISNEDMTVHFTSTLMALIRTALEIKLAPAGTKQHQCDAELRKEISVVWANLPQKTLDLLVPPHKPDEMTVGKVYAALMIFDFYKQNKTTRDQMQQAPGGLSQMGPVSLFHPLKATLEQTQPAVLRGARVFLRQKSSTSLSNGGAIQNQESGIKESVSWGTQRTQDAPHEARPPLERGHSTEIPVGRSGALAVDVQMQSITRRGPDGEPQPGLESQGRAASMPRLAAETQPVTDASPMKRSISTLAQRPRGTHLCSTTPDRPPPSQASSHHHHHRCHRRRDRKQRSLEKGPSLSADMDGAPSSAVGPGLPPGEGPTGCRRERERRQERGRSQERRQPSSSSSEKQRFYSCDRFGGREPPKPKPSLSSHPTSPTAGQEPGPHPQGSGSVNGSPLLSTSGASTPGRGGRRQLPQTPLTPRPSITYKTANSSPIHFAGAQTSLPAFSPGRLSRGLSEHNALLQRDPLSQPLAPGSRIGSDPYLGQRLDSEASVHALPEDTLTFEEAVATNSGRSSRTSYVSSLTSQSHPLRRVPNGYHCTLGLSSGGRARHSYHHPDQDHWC
# T1 sequence (Q02410 whole entry): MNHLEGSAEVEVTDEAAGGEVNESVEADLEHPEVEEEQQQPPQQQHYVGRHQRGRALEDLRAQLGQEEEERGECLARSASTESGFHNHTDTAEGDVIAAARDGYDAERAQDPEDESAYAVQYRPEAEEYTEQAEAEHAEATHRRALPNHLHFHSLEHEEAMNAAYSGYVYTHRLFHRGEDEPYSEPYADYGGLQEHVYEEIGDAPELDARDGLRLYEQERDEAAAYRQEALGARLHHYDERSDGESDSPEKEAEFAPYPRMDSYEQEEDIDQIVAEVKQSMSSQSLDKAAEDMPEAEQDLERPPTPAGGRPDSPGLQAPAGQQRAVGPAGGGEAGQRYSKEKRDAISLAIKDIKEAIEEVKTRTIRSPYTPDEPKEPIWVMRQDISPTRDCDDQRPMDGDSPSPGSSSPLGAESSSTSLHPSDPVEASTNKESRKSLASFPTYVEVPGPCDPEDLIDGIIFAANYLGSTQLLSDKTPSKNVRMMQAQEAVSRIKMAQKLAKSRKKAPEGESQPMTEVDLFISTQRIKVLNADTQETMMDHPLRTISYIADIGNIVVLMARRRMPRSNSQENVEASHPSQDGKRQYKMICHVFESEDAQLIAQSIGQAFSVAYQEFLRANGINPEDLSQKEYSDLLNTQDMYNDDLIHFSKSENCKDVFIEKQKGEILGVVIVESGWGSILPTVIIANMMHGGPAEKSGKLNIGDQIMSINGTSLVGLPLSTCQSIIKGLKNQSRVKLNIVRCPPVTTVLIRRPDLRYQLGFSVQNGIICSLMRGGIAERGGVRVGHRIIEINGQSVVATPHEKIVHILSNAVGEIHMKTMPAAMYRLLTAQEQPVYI
structure (smiles),measurement,setting,value
Cc1cc2nn(-c3cccc4ccccc34)nc2cc1N,IC50,[1],46700 nM (active)
same,EC50,Caspase-7,> 85200 nM (inactive)
same,EC50,Caspase-3,> 85200 nM (inactive)
same,IC50,[2],8230 nM (active)
Cc1ccc2nc(N(CCCN(C)C)C(=O)c3sc4ccccc4c3Cl)sc2c1,IC50,Saccharomyces cerevisiae,6520 nM (active)
same,IC50,[3],16900 nM (active)
same,IC50,[4],> 20000 nM (inactive)
Cc1ccc(N2CCN(c3ccc(NCc4nc5ccccc5n4C)cc3)CC2)cc1,EC50,[5],1060 nM (active)
same,IC50,Protein Rev,19600 nM (not active)
same,IC50,Nonstructural protein 1,75600 nM (active)
same,IC50,[6],> 2210 nM (active)
COC(=O)Nc1nc(-c2ccccc2)c(C(=O)c2ccccc2)s1,EC50,cells,1190 nM (active)
same,EC50,BJ [7],1560 nM (active)
same,EC50,[8],1040 nM (active)
same,EC50,BJ [9],676 nM (active)
same,EC50,[10],< 100 nM (active)
same,IC50,J774.A1,> 25000 nM (inactive)
same,EC50,BJ [11],479 nM (active)
same,EC50,[12],< 100 nM (active)
same,EC50,[13],1730 nM (active)
same,EC50,[14],1040 nM (active)
same,EC50,[15],1360 nM (active)
